According to the supplement of paper PMC10307832:

Experiments:
Experiment in all cases: relative viability (nuclei count vs DMSO), 5 days (fraction); higher = more cells survive
SGI-1776 + Pemetrexed = compound: CN1CCC(CNc2ccc3ncc(-c4cccc(OC(F)(F)F)c4)n3n2)CC1 [SGI-1776] + Nc1nc2[nH]cc(CCc3ccc(C(=O)N[C@@H](CCC(=O)O)C(=O)O)cc3)c2c(=O)[nH]1 [Pemetrexed] (partner 0.2 µM)
Method in brief: (§1)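 Lung cancer cell lines were seeded in 1536-well plates and dosed by pin tool the next day, with either a single drug or a fixed anchor-drug dose combined with five library-drug doses (not always all listed) spaced in √10 steps. Five days later, one step fixed the cells and stained their nuclei (final 0.05% Triton X-100, 1% formaldehyde, 1 ug/ml Hoechst), and nuclei were counted on 4× images. Relative viability is the nuclei count in treated wells divided by the count in vehicle wells, and each value is the median of duplicate plates.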

Entinostat + OSI-027 = compound: Nc1ccccc1NC(=O)c1ccc(CNC(=O)OCc2cccnc2)cc1 [Entinostat] + COc1cccc2cc(-c3nc([C@H]4CC[C@H](C(=O)O)CC4)n4ncnc(N)c34)[nH]c12 [OSI-027] (partner 0.5 µM)
Method in brief: as §1

[1] = compound: C1COCCN1C2=NC(=NC3=C2OC4=C3C=CC=N4)C5=CC(=CC=C5)NC(=O)C6=CN=C(C=C6)N + CC(C)C[C@H](NC(=O)[C@H](Cc1ccccc1)NC(=O)c1cnccn1)B(O)O [Bortezomib] (partner 0.002 µM)
Method in brief: as §1

[2] = compound: C1COCCN1C2=NC(=NC3=C2OC4=C3C=CC=N4)C5=CC(=CC=C5)NC(=O)C6=CN=C(C=C6)N + C[C@]1(O)C[C@@H](c2nc(-c3ccc4ccc(-c5ccccc5)nc4c3)c3c(N)nccn32)C1 [Linsitinib] (partner 1 µM)
Method in brief: as §1

Cell Line | relative viability (SGI-1776 + Pemetrexed; first compound 0.08 µM) | relative viability (SGI-1776 + Pemetrexed; first compound 0.8 µM) | relative viability (SGI-1776 + Pemetrexed; first compound 2.53 µM) | relative viability (SGI-1776 + Pemetrexed; first compound 8 µM) | relative viability (Entinostat + OSI-027; first compound 0.02 µM) | relative viability (Entinostat + OSI-027; first compound 0.06325 µM) | relative viability (Entinostat + OSI-027; first compound 0.2 µM) | relative viability (Entinostat + OSI-027; first compound 0.6325 µM) | relative viability (Entinostat + OSI-027; first compound 2 µM) | relative viability ([1]; first compound 0.02 µM) | relative viability ([1]; first compound 0.06325 µM) | relative viability ([1]; first compound 0.2 µM) | relative viability ([1]; first compound 0.6325 µM) | relative viability ([1]; first compound 2 µM) | relative viability ([2]; first compound 0.02 µM) | relative viability ([2]; first compound 0.06325 µM) | relative viability ([2]; first compound 0.2 µM) | relative viability ([2]; first compound 0.6325 µM) | relative viability ([2]; first compound 2 µM)
LOU-NH91 | 0.371 | 0.371 | 0.405 | 0.446 | 0.719 | 0.761 | 0.708 | 0.652 | 0.585 | 0.511 | 0.474 | 0.481 | 0.489 | 0.461 | 0.893 | 0.998 | 0.989 | 0.92 | 0.769
LU99A | 0.176 | 0.218 | 0.178 | 0.189 | 0.308 | 0.314 | 0.353 | 0.27 | 0.296 | 1.12 | 1.17 | 1.07 | 0.748 | 0.497 | 0.517 | 0.583 | 0.435 | 0.353 | 0.236
LXF-289 | 0.875 | 1 | 0.808 | 0.9 | 0.795 | 0.765 | 0.894 | 0.582 | 0.395 | 1.1 | 1.11 | 0.996 | 0.997 | 0.409 | 1.02 | 1.07 | 0.975 | 0.986 | 0.76
NCI-H23 | 0.763 | 0.799 | 0.659 | 0.569 | 0.711 | 0.774 | 0.648 | 0.463 | 0.287 | 1.15 | 1.44 | 1.15 | 0.899 | 0.446 | 0.6 | 0.576 | 0.499 | 0.534 | 0.497
NCI-H322M | 0.648 | 0.65 | 0.59 | 0.504 | 0.608 | 0.54 | 0.558 | 0.483 | 0.371 | 1.2 | 1.25 | 1.25 | 1.24 | 0.965 | 0.817 | 0.981 | 0.884 | 0.924 | 0.759
NCI-H441 | 0.276 | 0.258 | 0.299 | 0.26 | 0.592 | 0.562 | 0.592 | 0.308 | 0.233 | 0.342 | 0.638 | 0.565 | 0.648 | 0.274 | 0.522 | 0.609 | 0.569 | 0.534 | 0.357
NCI-H460 | 0.0693 | 0.062 | 0.0616 | 0.0609 | 0.606 | 0.575 | 0.335 | 0.0521 | 0.0268 | 1.45 | 1.13 | 1.27 | 1.02 | 0.125 | 0.839 | 0.959 | 0.834 | 0.583 | 0.225
NCI-H520 | 0.784 | 0.692 | 0.553 | 0.348 | 0.335 | 0.277 | 0.274 | 0.385 | 0.407 | 0.637 | 0.641 | 0.465 | 0.529 | 0.298 | 1.09 | 1.08 | 1.07 | 1.08 | 0.373
NCI-H596 | 0.442 | 0.51 | 0.505 | 0.461 | 0.716 | 0.804 | 0.708 | 0.443 | 0.412 | 0.9 | 1.21 | 0.963 | 1 | 0.684 | 0.959 | 1.15 | 1.1 | 0.96 | 0.727
NCI-H647 | 0.172 | 0.151 | 0.166 | 0.145 | 0.677 | 0.537 | 0.562 | 0.302 | 0.179 | 1.02 | 1.47 | 0.983 | 0.862 | 0.402 | 1.11 | 1.27 | 1.19 | 0.901 | 0.588
NCI-H650 | 1.02 | 0.91 | 0.949 | 0.841 | 0.614 | 0.614 | 0.586 | 0.489 | 0.261 | 0.773 | 0.906 | 0.75 | 0.909 | 0.529 | 0.876 | 0.876 | 0.857 | 0.837 | 0.659
NCI-H661 | 0.938 | 0.89 | 0.917 | 0.889 | 0.688 | 0.757 | 0.724 | 0.54 | 0.629 | 0.772 | 0.747 | 0.741 | 0.657 | 0.63 | 0.533 | 0.645 | 0.645 | 0.421 | 0.386
NCI-H838 | 0.232 | 0.29 | 0.258 | 0.189 | 0.46 | 0.489 | 0.474 | 0.487 | 0.318 | 0.708 | 0.872 | 0.564 | 0.659 | 0.469 | 0.977 | 1.08 | 0.933 | 0.78 | 0.371
NCI-H1355 | 1.09 | 1.07 | 1.01 | 1.03 | 0.476 | 0.434 | 0.397 | 0.27 | 0.252 | 1.24 | 1.25 | 1.27 | 1.21 | 1.06 | 0.871 | 0.933 | 0.815 | 0.789 | 0.68
NCI-H1437 | 0.3 | 0.328 | 0.28 | 0.265 | 0.786 | 0.581 | 0.306 | 0.218 | 0.203 | 0.428 | 0.733 | 0.483 | 0.474 | 0.185 | 1.05 | 1.08 | 1.07 | 1.01 | 0.314
NCI-H1563 | 0.929 | 0.847 | 0.765 | 0.726 | 0.723 | 0.687 | 0.707 | 0.653 | 0.547 | 0.883 | 0.81 | 0.84 | 0.665 | 0.589 | 1.22 | 1.32 | 1.22 | 0.901 | 0.884
NCI-H1651 | 0.672 | 0.736 | 0.604 | 0.456 | 0.747 | 0.653 | 0.71 | 0.608 | 0.542 | 1.03 | 0.998 | 0.946 | 0.921 | 0.743 | 0.996 | 0.917 | 0.957 | 1.09 | 0.357
NCI-H1666 | 0.895 | 0.917 | 0.893 | 0.789 | 0.906 | 0.897 | 0.859 | 0.618 | 0.606 | 0.781 | 0.902 | 0.735 | 0.588 | 0.486 | 0.867 | 0.908 | 0.804 | 0.817 | 0.681
NCI-H1734 | 0.412 | 0.371 | 0.399 | 0.377 | 0.635 | 0.772 | 0.59 | 0.5 | 0.488 | 1.15 | 1.02 | 0.835 | 0.801 | 0.462 | 0.865 | 0.938 | 0.86 | 0.84 | 0.467
NCI-H1755 | 0.465 | 0.443 | 0.425 | 0.372 | 0.693 | 0.776 | 0.684 | 0.566 | 0.309 | 0.947 | 1.08 | 0.904 | 0.918 | 0.613 | 1.02 | 1.01 | 0.992 | 0.94 | 0.509
NCI-H1792 | 0.965 | 0.754 | 0.745 | 0.649 | 0.752 | 0.753 | 0.609 | 0.569 | 0.43 | 1.2 | 0.905 | 0.994 | 0.86 | 0.374 | 0.608 | 0.508 | 0.565 | 0.257 | 0.468
NCI-H1915 | 0.481 | 0.463 | 0.497 | 0.47 | 0.594 | 0.605 | 0.58 | 0.283 | 0.222 | 1.07 | 1.08 | 1.03 | 1.02 | 0.423 | 1.08 | 1.14 | 1.13 | 1.11 | 1.08
NCI-H1975 | 0.29 | 0.288 | 0.289 | 0.273 | 0.532 | 0.526 | 0.467 | 0.264 | 0.209 | 0.352 | 0.419 | 0.397 | 0.359 | 0.299 | 0.882 | 0.983 | 0.897 | 0.905 | 0.476
NCI-H1993 | 0.61 | 0.569 | 0.559 | 0.548 | 0.484 | 0.586 | 0.53 | 0.552 | 0.653 | 1.2 | 1.13 | 0.967 | 0.891 | 0.893 | 0.768 | 0.627 | 0.689 | 0.74 | 0.667
NCI-H2009 | 0.912 | 1.05 | 1.15 | 0.954 | 0.59 | 0.691 | 0.628 | 0.636 | 0.451 | 0.977 | 1.11 | 0.969 | 0.977 | 0.727 | 1.29 | 1.2 | 1.17 | 1.17 | 0.871
NCI-H2023 | 0.282 | 0.222 | 0.244 | 0.174 | 0.287 | 0.29 | 0.264 | 0.12 | 0.0886 | 0.995 | 1.13 | 0.914 | 0.75 | 0.48 | 0.639 | 0.755 | 0.602 | 0.543 | 0.333
NCI-H2085 | 0.936 | 1.06 | 0.971 | 0.788 | 0.737 | 0.625 | 0.676 | 0.334 | 0.293 | 1.02 | 1.1 | 1.05 | 0.943 | 0.769 | 0.839 | 1.02 | 0.885 | 0.82 | 0.456
NCI-H2087 | 0.672 | 0.607 | 0.68 | 0.651 | 0.666 | 0.509 | 0.376 | 0.27 | 0.213 | 0.802 | 0.889 | 0.854 | 0.862 | 0.361 | 0.988 | 0.883 | 0.985 | 0.969 | 0.573
